{"source": "the OligoGym collection", "biological_target": "KRAS", "conditions": "ASO", "note": "“And” between values parts separate entries of the source, which are not always exact repeats. Equal entries are not always repeated. After the bases stand the sugars from the 5' end (letter, count) and the backbone: PS all phosphorothioate, else s phosphorothioate and o phosphodiester by linkage. Methylation of C is not given here. e = 2'-O-(2-methoxyethyl) (MOE); k = constrained ethyl (cEt); d = 2'-deoxy (DNA)"}
{"sequence": "AGATATCCACAGCAGC (sugars k3 d10 k3, PS)", "values": [{"measurement": "target mRNA inhibition", "setting": "A431, 2 µM", "result": 58, "unit": "%"}]}
{"sequence": "AGATGGTGTAACATAG (sugars k3 d10 k3, PS)", "values": [{"measurement": "target mRNA inhibition", "setting": "A431, 2 µM", "result": 39, "unit": "%"}]}
{"sequence": "AGATTGTGCTGAGCTT (sugars k3 d9 k3 e1, PS)", "values": [{"measurement": "target mRNA inhibition", "setting": "A431, 2 µM", "result": 42, "unit": "%"}]}
{"sequence": "AGATTGTGCTGAGCTT (sugars kddddddddddkekek, PS)", "values": [{"measurement": "target mRNA inhibition", "setting": "A431, 2 µM", "result": 7, "unit": "%"}]}
{"sequence": "AGCTTGATCGAAGAGT (sugars k3 d10 k3, PS)", "values": [{"measurement": "target mRNA inhibition", "setting": "A431, 5 µM", "result": 50, "unit": "%"}]}
{"sequence": "AGGAGTCTTTATAGTA (sugars k3 d10 k3, PS)", "values": [{"measurement": "target mRNA inhibition", "setting": "A431, 0.185 µM", "result": 14, "unit": "%"}, {"measurement": "target mRNA inhibition", "setting": "A431, 0.556 µM", "result": 42, "unit": "%"}, {"measurement": "target mRNA inhibition", "setting": "A431, 1.667 µM", "result": 58, "unit": "%"}, {"measurement": "target mRNA inhibition", "setting": "A431, 2 µM", "result": "66% and 65% and 57%"}, {"measurement": "target mRNA inhibition", "setting": "A431, 5 µM", "result": 77, "unit": "%"}]}
{"sequence": "AGGAGTCTTTATAGTA (sugars kkddddddddkekekk, PS)", "values": [{"measurement": "target mRNA inhibition", "setting": "A431, 2 µM", "result": 21, "unit": "%"}]}
{"sequence": "AGTGATTAGGTCAAAT (sugars kkddddddddkekekk, PS)", "values": [{"measurement": "target mRNA inhibition", "setting": "A431, 2 µM", "result": 46, "unit": "%"}]}
{"sequence": "AGTGTGACTCAGTTAA (sugars k3 d9 k3 e1, PS)", "values": [{"measurement": "target mRNA inhibition", "setting": "A431, 2 µM", "result": 15, "unit": "%"}]}
{"sequence": "AGTGTGACTCAGTTAA (sugars kkddddddddddkeke, PS)", "values": [{"measurement": "target mRNA inhibition", "setting": "A431, 2 µM", "result": 41, "unit": "%"}]}
{"sequence": "AGTGTGACTCAGTTAA (sugars kkdddddddddkdkdk, PS)", "values": [{"measurement": "target mRNA inhibition", "setting": "A431, 2 µM", "result": 38, "unit": "%"}]}
{"sequence": "AGTTTCACATAGCAAT (sugars k3 d10 k3, PS)", "values": [{"measurement": "target mRNA inhibition", "setting": "A431, 2 µM", "result": 38, "unit": "%"}]}
{"sequence": "ATAATAATCCCCATTT (sugars k3 d10 k3, PS)", "values": [{"measurement": "target mRNA inhibition", "setting": "A431, 2 µM", "result": 4, "unit": "%"}]}
{"sequence": "ATATCCACAGCAGCAG (sugars k3 d10 k3, PS)", "values": [{"measurement": "target mRNA inhibition", "setting": "A431, 2 µM", "result": 39, "unit": "%"}]}
{"sequence": "ATCCATTTATGTGACT (sugars k3 d10 k3, PS)", "values": [{"measurement": "target mRNA inhibition", "setting": "A431, 2 µM", "result": 38, "unit": "%"}]}
{"sequence": "ATCTTTTAATGTCACA (sugars k3 d10 k3, PS)", "values": [{"measurement": "target mRNA inhibition", "setting": "A431, 0.037 µM", "result": 74, "unit": "%"}, {"measurement": "target mRNA inhibition", "setting": "A431, 2 µM", "result": 58, "unit": "%"}, {"measurement": "target mRNA inhibition", "setting": "A431, 5 µM", "result": "97% and 96%"}, {"measurement": "target mRNA inhibition", "setting": "NCI-H460, 0.037 µM", "result": 65.3, "unit": "%"}]}
{"sequence": "ATGCTGTGAAACTCTC (sugars kddddddddddkekek, PS)", "values": [{"measurement": "target mRNA inhibition", "setting": "A431, 2 µM", "result": 18, "unit": "%"}]}
{"sequence": "ATGCTGTGAAACTCTC (sugars kkddddddddddkeke, PS)", "values": [{"measurement": "target mRNA inhibition", "setting": "A431, 2 µM", "result": 35, "unit": "%"}]}
{"sequence": "ATGCTGTGAAACTCTC (sugars kkddddddddkekekk, PS)", "values": [{"measurement": "target mRNA inhibition", "setting": "A431, 2 µM", "result": 25, "unit": "%"}]}
{"sequence": "ATGCTGTGAAACTCTC (sugars kkkdddddddddkeke, PS)", "values": [{"measurement": "target mRNA inhibition", "setting": "A431, 2 µM", "result": 2, "unit": "%"}]}
{"sequence": "ATGGTGTAACATAGGT (sugars kdddddddddkekeke, PS)", "values": [{"measurement": "target mRNA inhibition", "setting": "A431, 2 µM", "result": 39, "unit": "%"}]}
{"sequence": "ATGGTGTAACATAGGT (sugars kkddddddddddkeke, PS)", "values": [{"measurement": "target mRNA inhibition", "setting": "A431, 0.185 µM", "result": 22, "unit": "%"}, {"measurement": "target mRNA inhibition", "setting": "A431, 0.556 µM", "result": 39, "unit": "%"}, {"measurement": "target mRNA inhibition", "setting": "A431, 1.667 µM", "result": 60, "unit": "%"}, {"measurement": "target mRNA inhibition", "setting": "A431, 2 µM", "result": 65, "unit": "%"}, {"measurement": "target mRNA inhibition", "setting": "A431, 5 µM", "result": 69, "unit": "%"}]}
{"sequence": "ATGGTGTAACATAGGT (sugars kkdddddddddkekek, PS)", "values": [{"measurement": "target mRNA inhibition", "setting": "A431, 2 µM", "result": 53, "unit": "%"}, {"measurement": "target mRNA inhibition", "setting": "NCI-H460, 0.037 µM", "result": 52.7, "unit": "%"}]}
{"sequence": "ATGGTGTAACATAGGT (sugars kkkdddddddddkeke, PS)", "values": [{"measurement": "target mRNA inhibition", "setting": "A431, 2 µM", "result": 43, "unit": "%"}]}
{"sequence": "ATGGTGTAACATAGGT (sugars kkkddddddddkdkdk, PS)", "values": [{"measurement": "target mRNA inhibition", "setting": "A431, 2 µM", "result": 36, "unit": "%"}]}
{"sequence": "ATTACTTTTTGACAAA (sugars k3 d10 k3, PS)", "values": [{"measurement": "target mRNA inhibition", "setting": "A431, 2 µM", "result": 0, "unit": "%"}]}
{"sequence": "ATTAGTGATTAGGTCA (sugars k3 d10 k3, PS)", "values": [{"measurement": "target mRNA inhibition", "setting": "A431, 0.185 µM", "result": "2% and 25%"}, {"measurement": "target mRNA inhibition", "setting": "A431, 0.556 µM", "result": 37, "unit": "%"}, {"measurement": "target mRNA inhibition", "setting": "A431, 1.667 µM", "result": 47, "unit": "%"}, {"measurement": "target mRNA inhibition", "setting": "A431, 2 µM", "result": 55, "unit": "%"}, {"measurement": "target mRNA inhibition", "setting": "A431, 5 µM", "result": 71, "unit": "%"}]}
{"sequence": "ATTGTGCTGAGCTTGA (sugars kdddddddddkekeke, PS)", "values": [{"measurement": "target mRNA inhibition", "setting": "A431, 2 µM", "result": 18, "unit": "%"}]}
{"sequence": "CAAGATGACACTAATA (sugars k3 d10 k3, PS)", "values": [{"measurement": "target mRNA inhibition", "setting": "A431, 2 µM", "result": 18, "unit": "%"}]}
{"sequence": "CACTTCATTGTTTAAA (sugars k3 d10 k3, PS)", "values": [{"measurement": "target mRNA inhibition", "setting": "A431, 2 µM", "result": 12, "unit": "%"}]}
{"sequence": "CAGACTTGAAAAGTGT (sugars k3 d10 k3, PS)", "values": [{"measurement": "target mRNA inhibition", "setting": "A431, 2 µM", "result": 24, "unit": "%"}]}
{"sequence": "CAGTGTGACTCAGTTA (sugars kkddddddddddkeke, PS)", "values": [{"measurement": "target mRNA inhibition", "setting": "A431, 2 µM", "result": 51, "unit": "%"}]}
{"sequence": "CAGTGTTAAGAGAACT (sugars kdddddddddkekeke, PS)", "values": [{"measurement": "target mRNA inhibition", "setting": "A431, 2 µM", "result": 40, "unit": "%"}]}
{"sequence": "CATGCTGTGAAACTCT (sugars k3 d10 k3, PS)", "values": [{"measurement": "target mRNA inhibition", "setting": "A431, 2 µM", "result": 8, "unit": "%"}]}
{"sequence": "CATTTCTGATGTGACT (sugars k3 d10 k3, PS)", "values": [{"measurement": "target mRNA inhibition", "setting": "A431, 2 µM", "result": 32, "unit": "%"}]}
{"sequence": "CCAGTGATACTTTCAC (sugars kkddddddddkekekk, PS)", "values": [{"measurement": "target mRNA inhibition", "setting": "A431, 2 µM", "result": 17, "unit": "%"}]}
{"sequence": "CCAGTGTTAAGAGAAC (sugars kkddddddddddkeke, PS)", "values": [{"measurement": "target mRNA inhibition", "setting": "A431, 2 µM", "result": 42, "unit": "%"}]}
{"sequence": "CCATGCTGTGAAACTC (sugars k3 d10 k3, PS)", "values": [{"measurement": "target mRNA inhibition", "setting": "A431, 2 µM", "result": 26, "unit": "%"}]}
{"sequence": "CCATTCAAAGTTCACA (sugars k3 d9 k3 e1, PS)", "values": [{"measurement": "target mRNA inhibition", "setting": "A431, 2 µM", "result": 41, "unit": "%"}]}
{"sequence": "CCATTCAAAGTTCACA (sugars k3 d10 k3, PS)", "values": [{"measurement": "target mRNA inhibition", "setting": "A431, 2 µM", "result": 42, "unit": "%"}]}
{"sequence": "CCATTTATGTGACTAG (sugars kkddddddddkekekk, PS)", "values": [{"measurement": "target mRNA inhibition", "setting": "A431, 2 µM", "result": 0, "unit": "%"}]}
{"sequence": "CCATTTATGTGACTAG (sugars kkkddddddddkekek, PS)", "values": [{"measurement": "target mRNA inhibition", "setting": "A431, 2 µM", "result": 36, "unit": "%"}]}
{"sequence": "CTATTAGGAGTCTTTA (sugars k3 d10 k3, PS)", "values": [{"measurement": "target mRNA inhibition", "setting": "A431, 2 µM", "result": 34, "unit": "%"}]}
{"sequence": "CTCTATGAAAGCTCAA (sugars k3 d10 k3, PS)", "values": [{"measurement": "target mRNA inhibition", "setting": "A431, 2 µM", "result": 39, "unit": "%"}]}
{"sequence": "CTTGAAAAGTGTTTAT (sugars k3 d10 k3, PS)", "values": [{"measurement": "target mRNA inhibition", "setting": "A431, 2 µM", "result": 0, "unit": "%"}]}
{"sequence": "CTTGATTTGTCAGCAG (sugars kkkddddddddkdkdk, PS)", "values": [{"measurement": "target mRNA inhibition", "setting": "A431, 2 µM", "result": 33, "unit": "%"}]}
{"sequence": "CTTTTTGACAAATGGA (sugars k3 d10 k3, PS)", "values": [{"measurement": "target mRNA inhibition", "setting": "A431, 2 µM", "result": 22, "unit": "%"}]}
{"sequence": "GATGGTGTAACATAGG (sugars k3 d10 k3, PS)", "values": [{"measurement": "target mRNA inhibition", "setting": "A431, 0.185 µM", "result": 8, "unit": "%"}, {"measurement": "target mRNA inhibition", "setting": "A431, 0.556 µM", "result": 30, "unit": "%"}, {"measurement": "target mRNA inhibition", "setting": "A431, 1.667 µM", "result": 56, "unit": "%"}, {"measurement": "target mRNA inhibition", "setting": "A431, 2 µM", "result": 60, "unit": "%"}, {"measurement": "target mRNA inhibition", "setting": "A431, 5 µM", "result": 68, "unit": "%"}]}
